Experimental data from PMC9936582, “Sulfamate Acetamides as Self-Immolative Electrophiles for Covalent Ligand-Directed Release Chemistry” (Journal of the American Chemical Society, 2023).

Tested on: Mino cells
Experiment: Competitive pull-down proteomics with ibrutinib alkyne probe in Mino cells
Type: cell-based, human
Details: 1 µM compound 1 h
Description: (10 μM). This was followed by a reaction with biotin-azide using CuAAC, enrichment of the labeled proteins, and their quantification by tryptic digestion and LC/MS/MS analysis.
The samples were then precipitated with methanol: chloroform (1 mL of methanol, 250 μL of chloroform, and 750 μL of water), washed with 1 mL of methanol, and air-dried. The samples were solubilized and bound to streptavidin agarose beads in PBS for 3 h at 25 °C. The beads were washed, centrifuged, and resuspended in Tris 50 mM pH 8 and transferred to a clean Eppendorf tube. After this, the bound proteins were eluted by boiling with 5% SDS then reduced with DTT, alkylated with iodoacetamide, and digested with trypsin. The samples were run on LC/MS/MS. The detailed procedure is available in the Supplementary Information. The mass spectrometry proteomics data have been deposited to the ProteomeXchange Consortium via the PRIDE[67] partner repository with the dataset identifiers PXD038301 and PXD038375.
400 µL of 0.1% IGEPAL/PBS were added, and the beads were washed 3 times with 0.1% IGEPAL/PBS, 3 times PBS and 3 times water. The peptides were eluted by incubation with 200 µL of 50% acetonitrile + 0.1% TFA for 5 min, followed by two more portions of 100 µL of 50% acetonitrile + 0.1% TFA. The samples were dried by speedvac, and further purified using Oasis desalting columns (Waters), after which they were dried and run on the instrument.
Pull-down samples preparation […]
incubation with 10 μM “probe 4” for another hour. The samples were prepared in quadruplicates. The cells were washed with cold PBS, from the flasks and frozen. Then, each sample was lysed in 200 μL of […]
The protein in the supernatant was quantified using BCA. For each sample, 250 μL of 1.7 mg/mL was prepared. At this point, 5 μL of 5 mM biotin azide and 9 μL of 100 mM CuSO4/THPTA complex were added. The click reaction was initiated by the addition of 7.5 μL of 150 mM sodium ascorbate, and the samples are incubated at room temperature for 1 h. The samples were then precipitated with methanol/chloroform (1 mL methanol, 250 μL chloroform, 750 μL water), washed with 1 mL of methanol, and air-dried. […]
and heated to 95 °C for 5 min. The samples were then diluted to 1.5 mL with PBS, and 50 μL of streptavidin agarose beads, prewashed with 0.2% SDS in PBS, was added, followed by 3 h incubation at room temperature. Following the incubation, the beads were centrifuged at 2000g for 2 min and washed four times with the following buffers (4 mL in each wash): 2% SDS; 0.1% sodium deoxycholate, 1% Triton X-100, 0.5 M NaCl, 1 mM EDTA, 50 mM HEPES pH = 7.5; 0.25 M NaCl, 0.5% IGEPAL, 0.5% sodium deoxycholate, 1 mM EDTA, 10 mM Tris pH = 8.1; 50 mM Tris pH = 7.4, 50 mM NaCl. […]
with heating to 95 °C for 6 min and occasional vortexing. Finally, the beads were spun down (2 min 2000g) and 80 μL of supernatant was removed to separate tubes. […]
had cooled, 4 μL of iodoacetamide (0.2 M) were added, and the samples were incubated in the dark for 40 min at room temperature. […]
samples were diluted 6-fold with 90% methanol + 50 mM ammonium bicarbonate. The samples were then […]
loaded on S-trap micro columns (Protify), and the columns were washed three times with 150 μL of 90% methanol + 50 mM ammonium bicarbonate. Then, 20 μL of 0.05 μg/μL of trypsin in 50 mM ammonium bicarbonate was added to the columns and the samples were incubated at 47 °C for 90 min. Then, 40 μL of 50 mM ammonium bicarbonate was added, followed by centrifugation and addition of 1 μL of 0.5 μg/μL trypsin to the eluate, which was incubated at 37 °C overnight. The column itself was then eluted using 40 μL of 0.2% formic acid and 40 μL 0.2% formic acid in 50% acetonitrile into a separate tube, which was kept at 4 °C. The two eluates were then combined and evaporated. The samples were further desalted using […]

Question: What does the source list for `Nc1ncnc2c1c(-c1ccc(Oc3ccccc3)cc1)nn2[C@@H]1CCCN(C(=O)COS(=O)(=O)NCc2ccccc2)C1` [3d]?
Answer: Log2(Fold Change) (4F2_HUMAN): -0.3468; Log2(Fold Change) (AATM_HUMAN): 1.62; Log2(Fold Change) (ACSF3_HUMAN): 0.1421; Log2(Fold Change) (AHNK_HUMAN): 2.176; Log2(Fold Change) (ALG1_HUMAN): -0.2223; Log2(Fold Change) (ANXA1_HUMAN): 2.107; Log2(Fold Change) (APEX1_HUMAN): 0.5549; Log2(Fold Change) (ARP3_HUMAN;ARP3B_HUMAN;ARP3C_HUMAN): 0.3683; Log2(Fold Change) (AT1A1_HUMAN;AT1A2_HUMAN;AT1A4_HUMAN;ATP4A_HUMAN;AT12A_HUMAN): 0.9797; Log2(Fold Change) (ATP5H_HUMAN): 0.3377; Log2(Fold Change) (ATPK_HUMAN): 0.2949; Log2(Fold Change) (ATPO_HUMAN): -0.283; Log2(Fold Change) (ATX10_HUMAN): 0.3503; Log2(Fold Change) (BST2_HUMAN): 0.9798; Log2(Fold Change) (BZW1_HUMAN): 0.5267; Log2(Fold Change) (C1TM_HUMAN): -0.1466; Log2(Fold Change) (CALL5_HUMAN): -0.1469; Log2(Fold Change) (CD20_HUMAN): -0.02247; Log2(Fold Change) (CD38_HUMAN): 0.01573; Log2(Fold Change) (CLCA_HUMAN): -0.02966; Log2(Fold Change) (CLH1_HUMAN;CLH2_HUMAN): 2.15; Log2(Fold Change) (COX2_HUMAN): -0.2094; Log2(Fold Change) (CRERF_HUMAN): -0.7334; Log2(Fold Change) (DD19B_HUMAN;DD19A_HUMAN): -0.05233; Log2(Fold Change) (DDX3X_HUMAN;DDX3Y_HUMAN;DDX4_HUMAN): 1.382; Log2(Fold Change) (DNJC7_HUMAN): 0.6525; Log2(Fold Change) (DSC1_HUMAN): -0.7969; Log2(Fold Change) (EF1B_HUMAN): -0.6176; Log2(Fold Change) (EPIPL_HUMAN): 0.9511; Log2(Fold Change) (FPPS_HUMAN): -0.6242; Log2(Fold Change) (GCR_HUMAN): 0.4122; Log2(Fold Change) (GLYM_HUMAN;GLYC_HUMAN): 1.206; Log2(Fold Change) (GSDMA_HUMAN): 0.09253; Log2(Fold Change) (HMCS1_HUMAN): 0.6183; Log2(Fold Change) (HXK2_HUMAN;HXK3_HUMAN): 0.4444; Log2(Fold Change) (IF4A1_HUMAN): 0.3836; Log2(Fold Change) (IF4A3_HUMAN): 0.3127; Log2(Fold Change) (IF4H_HUMAN): 0.66; Log2(Fold Change) (IGLL5_HUMAN;IGL1_HUMAN;IGLC1_HUMAN): -2.924; Log2(Fold Change) (LAPM5_HUMAN): 0.7164; Log2(Fold Change) (LAT1_HUMAN): -0.2987; Log2(Fold Change) (LMNA_HUMAN): 1.21; Log2(Fold Change) (MATR3_HUMAN): 1.3535; Log2(Fold Change) (MBB1A_HUMAN): 0.0529; Log2(Fold Change) (MCCA_HUMAN): -0.3018; Log2(Fold Change) (MIC19_HUMAN): 0.1905; Log2(Fold Change) (MP2K7_HUMAN): 1.5282; Log2(Fold Change) (NCEH1_HUMAN): 1.226; Log2(Fold Change) (NT5D1_HUMAN): 2.611; Log2(Fold Change) (NUCL_HUMAN): 0.5701; Log2(Fold Change) (OTUB1_HUMAN): 0.2048; Log2(Fold Change) (P121C_HUMAN;P121A_HUMAN): 0.4168; Log2(Fold Change) (PARK7_HUMAN): 1.57; Log2(Fold Change) (PCKGM_HUMAN): 0.1766; Log2(Fold Change) (PEBP1_HUMAN): -0.8247; Log2(Fold Change) (PEPL_HUMAN): 0.8796; Log2(Fold Change) (PFKAL_HUMAN): -0.4948; Log2(Fold Change) (PGK1_HUMAN;PGK2_HUMAN): 0.5127; Log2(Fold Change) (PIP_HUMAN): 0.8481; Log2(Fold Change) (PLAK_HUMAN;CTNB1_HUMAN): -0.4311; Log2(Fold Change) (POF1B_HUMAN): 0.5955; Log2(Fold Change) (PSA3_HUMAN): 0.515; Log2(Fold Change) (PSB8_HUMAN): 0.8443; Log2(Fold Change) (RAB1A_HUMAN;RAB1B_HUMAN;RAB1C_HUMAN): 0.5794; Log2(Fold Change) (RANG_HUMAN;IPKB_HUMAN): -0.3375; Log2(Fold Change) (RAP1B_HUMAN;RAP1A_HUMAN;RP1BL_HUMAN;RAB3D_HUMAN): 0.1236; Log2(Fold Change) (RFTN1_HUMAN): 0.055; Log2(Fold Change) (RL13A_HUMAN;R13P3_HUMAN): 0.2889; Log2(Fold Change) (RL18_HUMAN): 0.278; Log2(Fold Change) (RLA1_HUMAN): 1.604; Log2(Fold Change) (RN3P2_HUMAN): -0.7545; Log2(Fold Change) (RS28_HUMAN): 1.706; Log2(Fold Change) (RTN4_HUMAN): -0.003108; Log2(Fold Change) (RUVB2_HUMAN): 0.8199; Log2(Fold Change) (S38A1_HUMAN): 0.5709; Log2(Fold Change) (S61A1_HUMAN;S61A2_HUMAN): 0.03923; Log2(Fold Change) (SAE2_HUMAN): 0.8525; Log2(Fold Change) (SATT_HUMAN): -0.2942; Log2(Fold Change) (SCRB1_HUMAN): 0.8748; Log2(Fold Change) (SIAT1_HUMAN): 0.1522; Log2(Fold Change) (SO4A1_HUMAN): 1.533; Log2(Fold Change) (SPB4_HUMAN): 2.369; Log2(Fold Change) (SPB12_HUMAN): -0.3346; Log2(Fold Change) (SSDH_HUMAN): 1.965; Log2(Fold Change) (SUCB1_HUMAN): 0.8691; Log2(Fold Change) (TAP1_HUMAN): -1.533; Log2(Fold Change) (TAP2_HUMAN;ABCB8_HUMAN;ABCBA_HUMAN): 0.8469; Log2(Fold Change) (TBB2B_HUMAN;TBB2A_HUMAN): -0.1459; Log2(Fold Change) (TSN_HUMAN): -0.1715; Log2(Fold Change) (TX264_HUMAN): 0.3926; Log2(Fold Change) (UB2V2_HUMAN;UB2V1_HUMAN): 1.306; Log2(Fold Change) (UBP5_HUMAN): -0.01896; Log2(Fold Change) (UBP14_HUMAN): 1.116; Log2(Fold Change) (URP2_HUMAN): 0.2486; Log2(Fold Change) (USMG5_HUMAN): 0.3682; Log2(Fold Change) (VDAC1_HUMAN): 0.3637; Log2(Fold Change) (VEZA_HUMAN): -0.126; Log2(Fold Change) (XPO2_HUMAN): 0.1341; Log2(Fold Change) (XPO5_HUMAN): 0.1456; Log2(Fold Change) (ZDHC8_HUMAN): -1.527
